≈ marks a conversion by molar mass, not a printed value.
How the values were obtained:
[1] = target: human histamine 4 receptor (hH4R) (Homo sapiens (Human), UniProt Q9H3N8); experiment: Binding affinity of human histamine 4 receptor (hH4R), [3H] labeled histamine displacement; settings: hH4R-overexpressed cell membrane, [3H] histamine
Method: 20 μL of the prepared compound solution was transferred to each well of a 96-well plate, and then 20 μL of 100 μM histamine diluted with analysis buffer solution and 1% DMSO were transferred to each well to calculate non-specific binding and total binding degree. 25 μg of human histamine 4 receptor-overexpressed cell membrane (PerkinElmer) was diluted into 160 μL of analysis buffer solution and that was transferred to each well. [^3H] labeled histamine (PerkinElmer) was diluted into 1 μM concentration, 20 μL was allocated in each well, and then it was kept in a 27° C. incubator for 30 minutes. After the reaction, 200 μL of the mixture was transferred to a glass fiber plate in which 0.5% polyethylene amine was presoaked, and then non-binding [^3H] labeled histamine was removed in vacuum. After 4 times washing with 200 μL of washing buffer solution (50 mM tris-HCl, pH 7.4), the plate was dried in a 37° C. oven for 18 hours. 100 μL of betascint cocktail solution was added to each well, and after 1 hour CPM (count per minute) value of [^3H] labeled histamine was measured by using Wallac beta-counter TriLux.

[2] = target: human histamine 3 receptor (hH3R) (Homo sapiens (Human), UniProt Q9Y5N1); experiment: Binding affinity of human histamine 3 receptor (hH3R), [3H] labeled N-α-methylhistamine displacement; settings: hH3R-overexpressed cell membrane, [3H] N-α-methylhistamine
Chain of human histamine 3 receptor (hH3R) (Q9Y5N1 whole entry): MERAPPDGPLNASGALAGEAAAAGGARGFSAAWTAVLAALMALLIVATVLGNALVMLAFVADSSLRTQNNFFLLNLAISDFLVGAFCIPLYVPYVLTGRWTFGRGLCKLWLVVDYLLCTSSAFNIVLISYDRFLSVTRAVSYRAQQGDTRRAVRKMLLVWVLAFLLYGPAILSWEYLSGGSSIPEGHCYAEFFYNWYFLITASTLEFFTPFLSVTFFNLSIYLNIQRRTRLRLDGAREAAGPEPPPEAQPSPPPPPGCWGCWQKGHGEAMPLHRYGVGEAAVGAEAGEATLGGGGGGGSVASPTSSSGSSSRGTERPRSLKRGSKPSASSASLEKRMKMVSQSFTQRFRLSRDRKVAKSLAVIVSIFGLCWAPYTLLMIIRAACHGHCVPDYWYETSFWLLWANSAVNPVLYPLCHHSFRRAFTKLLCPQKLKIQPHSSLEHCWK
Method: 10 μL of the prepared compound solution was allocated in each well of a 96-well plate, and then 10 μL of 200 μM (R)(−)-α-methylhistamine (RaMH) diluted with analysis buffer and 1% of DMSO were transferred to each well to calculate non-specific binding and total binding degree. 15 μg of human histamine 3 receptor-overexpressed cell membrane (PerkinElmer) was diluted with 180 μL of analysis buffer solution (50 mM tris-HCl pH 7.4, 5 mM MgCl2), and that was transferred to each well. [^3H] labeled Na-methylhistamine (PerkinElmer) was diluted into […], 10 μL of that was added to each well, and then it was kept in a 27° C. incubator for 30 minutes. After the reaction, 200 μL of the mixture was transferred to a glass fiber plate in which 0.5% polyethylene amine was presoaked, and then non-binding [^3H] labeled Na-methylhistamine was removed in vacuum. After 5 times washing with 200 μL of washing buffer solution (50 mM tris-HCl, pH 7.4), the plate was dried in a 37° C. oven for 18 hours. 100 μL of betascint cocktail solution was added to each well, and after 1 hour CPM of [^3H] labeled N-α-methylhistamine was measured by using Wallac beta-counter TriLux. The binding affinity (IC50) of the human histamine 3 receptor for the present invention was analyzed by an Excel program, and the results of analysis are shown in Table 2.

[3] = Metabolic stability in mouse microsome; settings: mouse microsome 1 mg/mL, 5 μM compound, 1 mM NADPH
[4] = Metabolic stability in human microsome; settings: human microsome 1 mg/mL, 5 μM compound, 1 mM NADPH
[5] = Solubility in artificial gastrointestinal tract solution; assay type: physicochemical; settings: artificial gastrointestinal tract solution, thermodynamic from solid; for solubility at 1 h: fassgf or other biorelevant, first solution pH 1.2, 2 mg/mL sample, 37° C. 1 hour; for solubility at 2 h: fassif, second solution pH 6.5, 2 mg/mL sample, 37° C. 2 hours
Method: 2.0 g of sodium chloride was added in 7.0 mL of 37% of hydrochloric acid and water to make the total volume of 1 L. The pH was adjusted to exactly 1.2 with 1N sodium hydroxide or 1N hydrochloric acid. A small amount (20 mL) of this solution was taken and added in 25 μL of triton X-100 to make the total volume of 25 mL.
0.348 g sodium hydroxide, 3.438 g NaH2PO4, 6.186 g sodium chloride and water were added to make the total volume of 1 L. The pH was adjusted to exactly 6.5 with 1N sodium hydroxide or 1N hydrochloric acid. A small amount (20 mL) of this solution was taken and 41.25 mg of sodium taurocholate hydrate and 25 μL of 750 mM lecithin dissolved in ethanol was added to make the total volume of 25 mL.
The heated test sample solutions were filtered to remove undissolved compounds therein. Finally, 100 μL of the completely compound-dissolved solution was sampled and 100 μL of CH3CN was added thereto to make the test sample solution. For each analysis of the test sample solution, the solubility was measured by using liquid chromatography.

Chain of human histamine 4 receptor (hH4R) (Q9H3N8 whole entry): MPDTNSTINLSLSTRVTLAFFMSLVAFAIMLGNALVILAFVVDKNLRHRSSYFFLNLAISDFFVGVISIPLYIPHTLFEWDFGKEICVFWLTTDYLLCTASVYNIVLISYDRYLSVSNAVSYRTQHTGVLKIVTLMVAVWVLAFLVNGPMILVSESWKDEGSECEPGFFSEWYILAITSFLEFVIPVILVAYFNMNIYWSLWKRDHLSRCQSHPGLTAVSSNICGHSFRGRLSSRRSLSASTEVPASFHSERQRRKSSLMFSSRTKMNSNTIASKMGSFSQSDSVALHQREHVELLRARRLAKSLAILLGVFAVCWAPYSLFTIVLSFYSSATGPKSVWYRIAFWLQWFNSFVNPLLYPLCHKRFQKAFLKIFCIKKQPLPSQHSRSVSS

Compound	IC50 [1]	IC50 [2]	Metabolic stability (CLh. int), Mouse [3]	Metabolic stability (CLh. int), Human [4]	solubility at 1 h [5]	solubility at 2 h [5]
CNC1CN(c2nc3ncc(OC(F)F)cc3n3cnnc23)C1 [Compound 59, 1-(8-(Difluoromethoxy)pyrido[2,3-e][1,2,4]triazolo[4,3-a]pyrazin-4-yl)-N-methylazetidin-3-amine]	890 nM	> 100000 nM	1230 µL/min/mg	1320 µL/min/mg		
Clc1cnc2nc(N3CCNCC3)n3nc(C4CC4)nc3c2c1 [Compound 39, 9-Chloro-2-cyclopropyl-5-(piperazin-1-yl)pyrido[3,2-e][1,2,4]triazolo[1,5-c]pyrimidine]	130 nM	> 100000 nM	5090 µL/min/mg	2840 µL/min/mg		
CN1CCN(c2nc3nc(Cl)c(Cl)cc3n3cnnc23)CC1 [Compound 17, 7,8-Dichloro-4-(4-methylpiperazin-1-yl)pyrido[2,3-e][1,2,4]triazolo[4,3-a]pyrazine]	177 nM	> 100000 nM	17130 µL/min/mg	5880 µL/min/mg		
N#Cc1cnc2nc(N3CCNCC3)c3nncn3c2c1 [Compound 26, 4-(piperazin-1-yl)pyrido[2,3-e][1,2,4]triazolo[4,3-a]pyrazin-8-carbonitrile]	220 nM	> 100000 nM	6740 µL/min/mg	2450 µL/min/mg		
CN1CCN(c2nc3ncc(Br)cc3n3cnnc23)CC1 [Compound 12, 8-Bromo-4-(4-methylpiperazin-1-yl)pyrido[2,3-e][1,2,4]triazolo[4,3-a]pyrazine]	67 nM		14420 µL/min/mg	3730 µL/min/mg	1930 µg/mL (≈ 5.54 mM)	679 µg/mL (≈ 1.95 mM)
CNC1CN(c2nc3nc(Cl)c(Cl)cc3n3cnnc23)C1 [Compound 27, 1-(7,8-Dichloropyrido[2,3-e][1,2,4]triazolo[4,3-a]pyrazin-4-yl)-N-methylazetidin-3-amine]		> 100000 nM	7270 µL/min/mg	1240 µL/min/mg		
CN(O)C1CN(c2nc3ncc(Br)cc3n3cnnc23)C1 [Compound 102, N-(1-(8-bromopyrido[2,3-e][1,2,4]triazolo[4,3-a]pyrazin-4-yl)azetidin-3-yl)-N-methylhydroxylamine]		> 100000 nM	6780 µL/min/mg	1990 µL/min/mg		
Clc1cnc2nc(N3C[C@@H]4C[C@H]3CN4)c3nncn3c2c1 [Compound 77, 4-((1S,4S)-2,5-diazabicyclo[2.2.1]heptan-2-yl)-8-chloropyrido[2,3-e][1,2,4]triazolo[4,3-a]pyrazine]	490 nM	> 100000 nM	320 µL/min/mg	1330 µL/min/mg		
CN1CCN(c2nc3ncc(C#N)cc3n3cnnc23)CC1 [Compound 13, 4-(4-Methylpiperazin-1-yl)pyrido[2,3-e][1,2,4]triazolo[4,3-a]pyrazin-8-carbonitrile]	238 nM	> 100000 nM	3070 µL/min/mg	2710 µL/min/mg		
CN1C[C@@H]2C[C@H]1CN2c1nc2ncc(Cl)cc2n2cnnc12 [Compound 78, 8-Chloro-4-((1S,4S)-5-methyl-2,5-diazabicyclo[2.2.1]heptan-2-yl)pyrido[2,3-e][1,2,4]triazolo[4,3-a]pyrazine]	430 nM	> 100000 nM	1460 µL/min/mg	2360 µL/min/mg		
CNC1CN(c2nc3ccc(Cl)nc3n3cnnc23)C1 [Compound 116, 1-(2-chloropyrido[3,2-e][1,2,4]triazolo[4,3-a]pyrazin-6-yl)-N-methylazetidin-3-amine]	240 nM	> 100000 nM			1940 µg/mL (≈ 6.7 mM)	960 µg/mL (≈ 3.31 mM)
CNC1CN(c2nc3ncc(OC)cc3n3cnnc23)C1 [Compound 58, 1-(8-Methoxypyrido[2,3-e][1,2,4]triazolo[4,3-a]pyrazin-4-yl)-N-methylazetidin-3-amine]	210 nM	> 100000 nM	12740 µL/min/mg	2800 µL/min/mg		
CN1CCN(c2nc3ncc(Cl)cc3c3nc(C4CC4)nn23)CC1 [Compound 38, 9-Chloro-2-cyclopropyl-5-(4-methylpiperazin-1-yl)pyrido[3,2-e][1,2,4]triazolo[1,5-c]pyrimidine]		> 100000 nM	14900 µL/min/mg	7180 µL/min/mg		
CN1CCN(c2nc3ncc(C(F)(F)F)cc3n3cnnc23)CC1 [Compound 53, 4-(4-Methylpiperazin-1-yl)-8-(trifluoromethyl)pyrido[2,3-e][1,2,4]triazolo[4,3-a]pyrazine]	280 nM		3380 µL/min/mg	2340 µL/min/mg		
CN1CCN(c2nc3nc(C#N)c(Cl)cc3n3cnnc23)CC1 [Compound 21, 8-Chloro-4-(4-methylpiperazin-1-yl)pyrido[2,3-e][1,2,4]triazolo[4,3-a]pyrazin-7-carbonitrile]	270 nM		7130 µL/min/mg	4870 µL/min/mg		
CNC1CN(c2nc3ncc(Br)cc3n3ccnc23)C1 [Compound 89, 1-(8-Bromoimidazo[1,2-a]pyrido[2,3-e]pyrazin-4-yl)-N-methylazetidin-3-amine]	360 nM	> 100000 nM	10710 µL/min/mg	3190 µL/min/mg		
Cn1cc2c(n1)c(N1CCNCC1)nc1ncc(Cl)cc12 [Compound 45, 8-Chloro-2-methyl-4-(piperazin-1-yl)-2H-pyrazolo[3,4-c][1,8]naphthylidine]		> 100000 nM	12990 µL/min/mg	3260 µL/min/mg		
C#Cc1cnc2nc(N3CC(NC)C3)c3nncn3c2c1 [Compound 54, 1-(8-Ethynylpyrido[2,3-e][1,2,4]triazolo[4,3-a]pyrazin-4-yl)-N-methylazetidin-3-amine]	200 nM	> 100000 nM	680 µL/min/mg	1160 µL/min/mg		
Clc1cc2c(nc1Cl)nc(N1CCNCC1)c1nncn12 [Compound 62, 7,8-Dichloro-4-(piperazin-1-yl)pyrido[2,3-e][1,2,4]triazolo[4,3-a]pyrazine]	510 nM	> 100000 nM	7980 µL/min/mg	4170 µL/min/mg		
CNC1CN(c2nc3ncc(Br)c(C)c3n3cnnc23)C1 [Compound 65, 1-(8-Bromo-9-methylpyrido[2,3-e][1,2,4]triazolo[4,3-a]pyrazin-4-yl)-N-methylazetidin-3-amine]	730 nM	> 100000 nM	6490 µL/min/mg	3210 µL/min/mg		
